Laboratory results from a melting point compilation (Tetko et al.; mined from patent text by program, amines drawn as free bases though some values may be those of a salt).

Row | Structure (SMILES) | melting point [°C]
1 | CC(CO)(CO)NS(=O)(=O)c1cccc(NC(=O)c2cnn3c(C(F)(F)F)cc(-c4ccc(C(F)(F)F)cc4)nc23)c1 | 248
2 | Cc1c(C2CCC(c3ccccc3)(N(C)C)CC2)[nH]c2ccc(C#N)cc12 (configuration not stated) | 235 to 240
3 | c1ccc2c(NC3CCCC3)nnc(Cc3ccncc3)c2c1 | 163 to 165
4 | CCc1cc(=O)n(C)c2c1C(=O)CCC2 | 65 to 70
5 | O=C(NCc1ccn(C2=CC3=C(CC2)CCc2[nH]c(=O)c(=O)n(O)c23)c1)Nc1ccccc1 | > 250
6 | CNc1cc(Cl)c(CO)c(Cl)c1 | 108 to 111
7 | Cc1nc(-c2cc(C(C)(C)C)c(O)c(C(C)(C)C)c2)no1 | 126 to 127
8 | CN1CCN(N=C2CC(c3ccc(C(F)(F)F)cc3)Cc3c2c(=O)c2cc(Cl)ccc2n3O)CC1 (configuration not stated) | 213
9 | CN(C)c1ccc(C2(c3ccc(N(C)C)cc3)NNC(=O)c3cc(N(C)C)ccc32)cc1 | 265 to 270
10 | CCCCCCc1ccc(CCCCC(COC(C)=O)(COC(C)=O)NC(C)=O)cc1 | 61 to 64
11 | CCOP1(=O)OCC(C)(C)c2cc(OS(C)(=O)=O)ccc2O1 (configuration not stated) | 113 to 115
12 | C#CCCCN=C(NC#N)NCCSCc1[nH]cnc1C | 99 to 103
13 | Cc1cc2c(cc1C1=NNC(=O)SC1C)C(C)(C)C(=O)N2 (configuration not stated) | 240
14 | CC(=O)NS(=O)(=O)c1ccc(NC(=O)c2ccccc2SSc2ccccc2C(=O)Nc2ccc(S(=O)(=O)NC(C)=O)cc2)cc1 | 180 to 182
15 | N=C(NCc1ccc(Cl)cc1)Nc1cccc(C(F)(F)F)c1 | 103 to 105
16 | O=C1CCC2C3Cc4ccc(O)c5c4C2(CC[N+]3([O-])CC2CC2)C1O5 (configuration not stated) | 209 to 211
17 | O=C(CCNC(=O)n1cc(F)c(=O)[nH]c1=O)N1CCOCC1 | 178 to 180
18 | CC1(c2nnc(S(C)(=O)=O)s2)CC(F)(F)C1(F)Cl (configuration not stated) | 63
19 | O=C(O)Cc1cccc(NC(=O)NCC(=O)N2[C@@H](c3ccccc3O)CC[C@H]2c2ccccc2)c1 (racemic) | 165

Row | Structure (SMILES) | melting point [°C]
20 | NC(=O)c1cn(Cc2ccccc2)c(CO)n1 | 204 to 207
21 | CC(C)(C)[Si](C)(C)OC1CCN(S(=O)(=O)c2ccc(N3CCCCC3)cc2)C1=S (configuration not stated) | 152 to 153
22 | CN(C)c1nc(Cl)nc(Cl)n1 | 123 to 124
23 | CC1CC2C3CCC4CC(O)CCC4(C)C3C(=O)CC2(C)C1C1(C)OCCO1 (configuration not stated) | 122 to 124
24 | CCn1ncc2nc(C(=O)O)c(C)nc21 | 148 to 149
25 | O=S(=O)(Cc1ccc(Cc2ccc(NC3=NCCN3)cc2)cc1)NCc1ccccc1 | 115 to 118
26 | OCC(O)Cc1nccn1CCCCc1ccc(OCc2coc(/C=C/c3ccc(F)cc3F)n2)cc1 (configuration not stated) | 126 to 128
27 | O=C(c1sccc1-n1cccc1)N1CCOCC1 | 100
28 | OCc1nnc(-c2ccc(-c3ccccc3)cc2)n1-c1ccccc1F | 220 to 223
29 | Cc1cc(C)nc(NC(=O)NS(=O)(=O)C2CCCCCCCCCCC2Cl)n1 (configuration not stated) | 84
30 | CSc1cc2c(cc1C(F)(F)F)N(C(=O)Nc1cccc(C(=O)NCCN3CCCCC3)c1)CC2 | 79 to 81
31 | CN1CCN(CCCn2cc(Br)c3c4c(c(-c5ccccc5Cl)cc32)C(=O)NC4=O)CC1 | 150 to 152
32 | O=C(CCc1ccccc1)N[C@H](Cc1ccc(C(F)(F)F)cc1)[C@@H](O)c1ccc(Oc2ccccc2)cc1 (racemic) | 133 to 134
33 | CCC(C=O)(CC)SN(C)C(=O)ON=C1SC(C)(C)C(=O)N1C | 105 to 106
34 | COCCn1nnnc1C1(c2cccc(C(F)(F)F)c2)C=CC(O)=CC1O (configuration not stated) | 115 to 156
35 | FC(F)(F)c1cccc(N2CCC(N=Cc3cccc4ccccc34)=N2)c1 | 173
36 | O=C1C2CCC(C(=O)N2Cc2ccccc2)N1Cc1ccccc1 | 168 to 170
37 | CCCCCCCCN(C)C(=O)CC(=O)N(C)CCCCCCCC | 41
38 | CC(=O)OCC1OC(n2c(=O)sc3c(=O)[nH]c(N)nc32)C(OC(C)=O)C1OC(C)=O (configuration not stated) | 198 to 199

Row | Structure (SMILES) | melting point [°C]
39 | CC(CO)C1CCC2C3CCC4=C(N)C(=O)CCC4(C)C3CCC12C (configuration not stated) | 180 to 185
40 | CC(C)(C)OC(=O)Nc1cc(OC(C)(C)C)c(I)cc1[N+](=O)[O-] | 94
41 | CN(C)Cc1cc(-c2ccccc2)c2c(n1)OCCN(Cc1cc(C(F)(F)F)cc(C(F)(F)F)c1)C2=O | 186 to 188
42 | CNc1cn(-c2cccnc2)nc1Cl | 104 to 106
43 | Cc1cc(S(=O)(=O)c2cc(C)c(O)c(C3CCCCC3)c2)cc(C2CCCCC2)c1O | 264 to 265
44 | CCCCOC(Cl)C(=O)NCC1OC(C)C(C)O1 (configuration not stated) | 28
45 | COc1ccc(C2CNCc3c(C)cccc32)cc1OC (configuration not stated) | 86 to 88
46 | CCOC(=O)C(C#N)=CN(C)C1CCCCC1 | 71 to 72
47 | COP(=O)(OC)C(NC=O)P(=O)(OC)OC | 95
48 | CSc1ccc([N+](=O)[O-])cn1 | 111 to 112
49 | CCOC(=O)C(=CNc1cc(C)nn1-c1ccccn1)C(=O)OCC | 128 to 131
50 | CCCCCCCCC#Cc1c(F)ccc(C(=O)O)c1F | 117
51 | CCOC(=O)c1cn(-c2nnn[nH]2)c2cc(F)c(F)cc2c1=O | 233 to 236
52 | O=C(O)CNC(=O)Cc1ccc(Cl)cc1S | 148 to 149
53 | CC(C)(C)c1ccc(OCC(=O)Nc2nnc(-c3cccc(Oc4cccc(C(F)(F)F)c4)c3)s2)cc1 | 179 to 180
54 | Cc1cc(C(C)C)cc(C)c1CO | 75 to 77
55 | CN1C(=S)NC(=O)C1=Cc1cc(C(C)(C)C)c(O)c(C(C)(C)C)c1 | 242 to 244
56 | O=c1[nH]cnc2c1cnn2-c1ncc(C(F)(F)F)cc1Cl | 331

More lines, now with the values ahead:

Row | melting point [°C] | Structure (SMILES)
57 | 154 | Cc1nc(NC(=O)Cc2cccs2)c(Br)c(C)c1Br
58 | 278 to 280 | CC(C)(C)c1ccc(C(=O)Nc2cn3cc(-c4cn[nH]c4)ccc3n2)cc1
59 | 128 to 130 | O=C1C(CCO)Oc2ccccc2N1Cc1cccc([N+](=O)[O-])c1 (configuration not stated)
60 | 70 to 71 | Cc1cc(S(=O)(=O)c2ccccc2)ccc1[N+](=O)[O-]
61 | 99 to 100 | CCCCNC(=O)N1CCC(c2nc(-c3ccc(-c4ccccc4)cc3)c[nH]2)CC1
62 | 176 to 180 | O=C(O)C(=O)CC(=O)c1cccn1Cc1ccccc1Br
63 | 209 to 211 | CCCOc1ccc(S(C)(=O)=O)cc1-c1nc2c(CC)nn(Cc3ccccn3)c2c(=O)[nH]1
64 | 152 to 154 | COC(=O)C1=C(C=O)NC(C)=C(C(=O)OCC(C)C)C1c1ccccc1C#N (configuration not stated)
65 | 175 to 179 | Cc1ccc2c(c1)NC(=O)c1cc(C)sc1O2
66 | 224 to 225 | Cc1ccnc(C(=O)c2[nH]c3cc(Cl)ccc3c2NC(=O)CCl)c1
67 | 206 to 209 | CS(=O)(=O)c1ccc(-c2[nH]c(Br)c(Cl)c2-c2ccc(F)cc2)cc1
68 | < 50 | COC(=O)C(C)(C)Nc1ccc(OCc2ccccc2)cc1
69 | 124 to 125 | COc1ccccc1C1=NN(C(=O)c2cccnc2)CC1C (configuration not stated)
70 | 109 to 110 | CCOC(=O)c1cc2cc(-c3ccccc3)ccc2o1
71 | 76 to 77.5 | CC(C)(C(=O)Nc1cc(F)ccc1F)N1COC(C=O)=C(c2ccccc2)C1=O
72 | 133 to 135 | CCCOC(=O)c1cn(CC)c2nc(N3CCNCC3)c(F)cc2c1=O
73 | 199 to 200 | CC(=O)NC[C@H]1CN(c2ccc(-c3ncno3)c(F)c2)C(=O)O1
74 | 169 to 170 | COc1ccc(C2=NOC3(C2)C(=O)CN(C)C3=O)cc1OC1CCCC1 (configuration not stated)
75 | 211 to 213 | CC1(c2ccc(Cl)cc2)Cc2cc(O)c(Cl)c(Cl)c2C1=O (configuration not stated)
76 | 136 | COc1cccc2cc(C(=O)c3ccc(Cl)c([N+](=O)[O-])c3)oc12
77 | 215 to 217 | CS(=O)(=O)c1cn(CC2=NCCN2)c2ccc(N)cc12
78 | 180 to 181 | CNc1cc(F)ccc1C(=O)O
79 | 150 to 152 | O=C(NCCSCCNC(=O)c1cccc(Cl)c1)c1cccc(Cl)c1

Row | melting point [°C] | Structure (SMILES)
80 | 154 to 156 | O=S(=O)(Nc1ccc2c(OCc3csc(-c4ccc(Cl)nc4)n3)cccc2c1)C(F)(F)F
81 | 230 to 233 | O=C1OC(P(=O)(O)c2ccccc2)c2ccccc21 (configuration not stated)
82 | 166 to 167 | COc1ccc2cc(C(=O)C(C)Br)ccc2c1Br (configuration not stated)
83 | 158 to 160 | COC(OC)c1cnc(-c2ccccc2)[nH]1
84 | 100 | CC1(C)COc2cc(Cl)c(F)cc2C(O)(c2ccccn2)C1 (configuration not stated)
85 | 160 to 162 | COC(=O)Nc1ccc(NC(=O)CBr)c([N+](=O)[O-])c1
86 | 171 to 173 | COc1cc2c(cc1Cl)C(=O)Cc1ccccc1S2
87 | 168 | COC1(c2cc(F)cc(OCc3ccc(-n4ccnc4C)cc3)c2)CCOCC1
88 | 242 | O=S(=O)(c1ccccc1)n1c2ccc(Br)cc2c2cc(Cl)cnc21
89 | 116 to 117 | ClCc1coc(-c2ccc3ccccc3c2)n1
90 | 97 to 99 | CSc1cc2c(cc1C(F)(F)F)N(C(=O)Nc1cccc(C(=O)NCCN(C(C)C)C(C)C)c1)CC2
91 | 171 to 175 | N#CC(=Cc1ccc2[nH]ccc2c1)S(=O)(=O)c1ccc(OC(F)(F)F)cc1
92 | 143 to 150 | CCOC(=O)N[C@@H](C(=O)O)c1ccccc1
93 | 255 to 257 | COc1ccc(Nc2cccc3c2C(=O)N([C@@]2(C)CCC(=O)NC2=O)C3=O)c(OC)c1
94 | 92 to 94 | Nc1cccc(-c2cccc3c2/C(=C/c2ccc[nH]2)C(=O)N3)c1
95 | 120 to 121 | COC(CCc1cc(C(F)(F)F)cc(C(F)(F)F)c1)C(Cc1csc2ccccc12)NC(C)=O (configuration not stated)
96 | 88 to 89 | COc1cccc2ccc(C(F)(F)F)nc12
97 | 107 to 111 | NC(=O)COc1cccc(N)c1
98 | 257 | CCCCCCCCC(C)(C)c1cc(=O)c2cc(O)ccc2o1
99 | 136 to 138 | COc1ccc(C(=O)NCCSSCCNC(=O)c2ccc(OC)cc2)cc1
100 | 149 to 151 | CC(C)N(C(N)=S)c1ccc2c(c1)OCO2
101 | 120 | CCCCCCCCOc1ccc(-c2ccc(Br)cc2)cc1
102 | 140 to 142 | CCN(CC)CCCN(Cc1ccc(COc2cccc3c2CN(C2CCC(=O)NC2=O)C3=O)cc1)C(=O)OC(C)(C)C (configuration not stated)
